Reference: ChEMBL document CHEMBL4033624, “Synthesis and evaluation of adenosine containing 3-arylfuran-2(5H)-ones as tyrosyl-tRNA synthetase inhibitors” (Eur J Med Chem, 2017)
Converted amounts (≈) assume the structure as drawn.

Columns and labels:
Escherichia coli = assay: Antibacterial activity against Escherichia coli ATCC 8739 after 4 to 5 hrs by MTT assay; format: functional
[1] = Inhibition of TyrRS (unknown origin) expressed in Escherichia coli using L-[ring-3,5-3H] tyrosine as substrate preincubated for 10 mins followed by substrate addition measured by liquid scintillation counting method; design: species or system Bacteria
Staphylococcus aureus = assay: Antibacterial activity against Staphylococcus aureus ATCC 6538 after 4 to 5 hrs by MTT assay; format: functional
Pseudomonas aeruginosa = assay: Antibacterial activity against Pseudomonas aeruginosa ATCC 9027 after 4 to 5 hrs by MTT assay; format: functional

SMILES | MIC50 (Escherichia coli) | IC50 [1] | MIC50 (Staphylococcus aureus) | MIC50 (Pseudomonas aeruginosa)
CCOc1ccc(C2=C(OCC(=O)NC[C@H]3O[C@@H](n4cnc5c(N)ncnc54)[C@H](O)[C@@H]3O)COC2=O)cc1OCC | > 100 µg/mL | > 100 µM | > 100 µg/mL | > 100 µg/mL
Nc1ncnc2c1ncn2[C@@H]1O[C@H](CNC(=O)c2cccc(Br)c2)[C@@H](O)[C@H]1O | > 100 µg/mL | 94.5 µM | > 100 µg/mL | > 100 µg/mL
COc1ccc(C2=C(OCC(=O)NC[C@H]3O[C@@H](n4cnc5c(N)ncnc54)[C@@H]4OC(C)(C)O[C@@H]43)COC2=O)cc1OC | > 100 µg/mL | > 100 µM | > 100 µg/mL | > 100 µg/mL
CC1(C)O[C@@H]2[C@H](O1)[C@@H](CNC(=O)c1cccc(Br)c1)O[C@H]2n1cnc2c(N)ncnc21 | > 100 µg/mL | > 100 µM | > 100 µg/mL | > 100 µg/mL
COc1ccc(C2=C(OCC(=O)NC[C@H]3O[C@@H](n4cnc5c(N)ncnc54)[C@H](O)[C@@H]3O)COC2=O)cc1OC | > 100 µg/mL | > 100 µM | > 100 µg/mL | > 100 µg/mL
CCOc1ccc(C2=C(OCC(=O)NC[C@H]3O[C@@H](n4cnc5c(N)ncnc54)[C@@H]4OC(C)(C)O[C@@H]43)COC2=O)cc1OCC | > 100 µg/mL | > 100 µM | > 100 µg/mL | > 100 µg/mL
CC1(C)O[C@@H]2[C@H](O1)[C@@H](CNC(=O)COC1=C(c3ccc(Cl)cc3Cl)C(=O)OC1)O[C@H]2n1cnc2c(N)ncnc21 | > 100 µg/mL | 83.8 µM | > 100 µg/mL | 90.9 µg/mL (≈ 154 µM)
CC1(C)S[C@@H]2[C@H](NC(=O)Cc3ccccc3)C(=O)N2[C@H]1C(=O)[O-].[Na+] [PENICILLIN G SODIUM] |  |  | 0.57 µg/mL | 

More lines, now with the values ahead:

MIC50 (Escherichia coli) | IC50 [1] | MIC50 (Staphylococcus aureus) | MIC50 (Pseudomonas aeruginosa) | SMILES
15.8 µg/mL (≈ 28.4 µM) | 24.3 µM | 30.3 µg/mL (≈ 54.4 µM) | 25.6 µg/mL (≈ 46 µM) | CC1(C)O[C@@H]2[C@H](O1)[C@@H](CNC(=O)COC1=C(c3ccccc3Cl)C(=O)OC1)O[C@H]2n1cnc2c(N)ncnc21
39.2 µg/mL (≈ 78.3 µM) | 31.7 µM | 72.7 µg/mL (≈ 145 µM) | 47.4 µg/mL (≈ 94.7 µM) | Nc1ncnc2c1ncn2[C@@H]1O[C@H](CNC(=O)COC2=C(c3ccc(F)cc3)C(=O)OC2)[C@@H](O)[C@H]1O
> 100 µg/mL | > 100 µM | > 100 µg/mL | > 100 µg/mL | CC1(C)O[C@@H]2[C@H](O1)[C@@H](CNC(=O)COC1=C(c3ccc(F)cc3)C(=O)OC1)O[C@H]2n1cnc2c(N)ncnc21
20.3 µg/mL (≈ 36.4 µM) | 22.7 µM | 39.6 µg/mL (≈ 71.1 µM) | 21.4 µg/mL (≈ 38.4 µM) | CC1(C)O[C@@H]2[C@H](O1)[C@@H](CNC(=O)COC1=C(c3ccc(Cl)cc3)C(=O)OC1)O[C@H]2n1cnc2c(N)ncnc21
46.6 µg/mL (≈ 83 µM) | 29.1 µM | 75.1 µg/mL (≈ 134 µM) | 40.5 µg/mL (≈ 72.1 µM) | Nc1ncnc2c1ncn2[C@@H]1O[C@H](CNC(=O)COC2=C(c3ccc(Br)cc3)C(=O)OC2)[C@@H](O)[C@H]1O
98.6 µg/mL (≈ 164 µM) | 92.6 µM | > 100 µg/mL | > 100 µg/mL | CC1(C)O[C@@H]2[C@H](O1)[C@@H](CNC(=O)COC1=C(c3ccc(Br)cc3)C(=O)OC1)O[C@H]2n1cnc2c(N)ncnc21
83.6 µg/mL (≈ 155 µM) | 56 µM | > 100 µg/mL | 82.8 µg/mL (≈ 153 µM) | CC1(C)O[C@@H]2[C@H](O1)[C@@H](CNC(=O)COC1=C(c3cccc(F)c3)C(=O)OC1)O[C@H]2n1cnc2c(N)ncnc21
60.2 µg/mL (≈ 102 µM) | 33.4 µM | 90.7 µg/mL (≈ 153 µM) | 63.7 µg/mL (≈ 108 µM) | CC1(C)O[C@@H]2[C@H](O1)[C@@H](CNC(=O)COC1=C(c3ccc(Cl)c(Cl)c3)C(=O)OC1)O[C@H]2n1cnc2c(N)ncnc21
29.4 µg/mL (≈ 53.3 µM) | 26.1 µM | 55.4 µg/mL (≈ 100 µM) | 33.6 µg/mL (≈ 60.9 µM) | Nc1ncnc2c1ncn2[C@@H]1O[C@H](CNC(=O)COC2=C(c3ccc(Cl)cc3Cl)C(=O)OC2)[C@@H](O)[C@H]1O
0.1 µg/mL (≈ 0.302 µM) |  |  | 0.64 µg/mL (≈ 1.93 µM) | O=C(O)c1cn(C2CC2)c2cc(N3CCNCC3)c(F)cc2c1=O [CIPROFLOXACIN]
